Assay results reported in patent publication US11332463B2, “Spiropiperidine allosteric modulators of nicotinic acetylcholine receptors” (Merck Sharp & Dohme Corp., priority 2018, dated 2022).
pEC50: −log10 of the molar value. Where two headings read alike, the source gives them in different places.

Target: T1, human α7 nicotinic acetylcholine receptor (HEK cell line stably expressing human RIC-3 and human α7) (Homo sapiens, UniProt P36544)
T1 construct: host or cells: HEK cell line (PrecisION hnAChR α7/RIC-3)
T1 sequence (P36544 23-502): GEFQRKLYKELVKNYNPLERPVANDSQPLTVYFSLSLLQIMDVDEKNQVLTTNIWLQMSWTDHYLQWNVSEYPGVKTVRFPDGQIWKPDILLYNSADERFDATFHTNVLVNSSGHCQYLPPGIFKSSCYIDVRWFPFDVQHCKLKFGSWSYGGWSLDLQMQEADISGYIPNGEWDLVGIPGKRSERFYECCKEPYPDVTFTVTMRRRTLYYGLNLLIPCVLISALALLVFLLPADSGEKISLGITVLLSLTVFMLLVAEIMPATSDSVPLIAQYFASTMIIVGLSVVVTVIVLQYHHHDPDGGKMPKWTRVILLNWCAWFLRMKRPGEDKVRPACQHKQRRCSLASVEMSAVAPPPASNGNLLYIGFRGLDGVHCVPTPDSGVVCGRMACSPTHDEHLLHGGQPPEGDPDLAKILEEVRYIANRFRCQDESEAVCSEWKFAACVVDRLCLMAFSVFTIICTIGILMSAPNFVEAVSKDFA
Assay: Automated patch-clamp electrophysiology functional assay (Assay A), IonFlux HT, whole-cell population patch
Format: cell-based
Experimental: The α7 nAChR positive allosteric modulator (PAM) activity of the present compounds may be tested using assays known in the art. […] The assay was performed using the IonFlux HT in a whole-cell, population patch configuration. See Golden et al. Assay Drug Dev. Technol. […] The compounds were assessed for their ability to modulate the function of the human 7 nAChR stably expressed in a HEK cell line both in the presence, and in the absence of the natural 7 agonist acetylcholine. By performing a series of such measurements at different concentrations, the effective concentration of the 7 nAChR PAMs (EC50) was determined. See Spencer et al. Assay Drug Dev. Technol.
Direct activation of α7 (agonism), and potentiation of acetylcholine-evoked 7 currents was determined as follows:
Automated patch-clamp electrophysiology was performed using the IonFlux HT (Fluxion Biosciences Inc., San Francisco, Calif.) in the whole-cell, population patch configuration. Test compounds were assessed for their ability to modulate the function of the α7 nicotinic acetylcholine receptor both in the presence, and in the absence of the natural α7 agonist acetylcholine. […] Immediately prior to assay, cells were detached by first aspirating growth media, rinsing with Dulbecco's phosphate buffered saline, and then adding 10 mL of Accutase (Innovative Cell Technologies, San Diego, Calif.) to the flask and then incubating at 37° C. for 5 minutes. Detached cells were then recovered by the addition of 40 mL of CHO-serum-free media supplemented with 25 mM HEPES, and rocked gently in a 50 mL conical tube for 20 minutes prior to patch-clamp assay. After recovery, cells were pelleted by centrifugation at 1,000 RPM for 1 minute in a compact bench top centrifuge; recovery media was aspirated and cells were resuspended in external recording solution (150 mM NaCl, 5 mM KCl, 2 mM CaCl2), 1 mM MgCl2, 10 mM HEPES, 12 mM dextrose) to a density of 5.0×10^6 cells/mL. The cell suspension was added to the cell inlet wells on an IonFlux HT population patch plate which had previously been rinsed and primed with deionized H2O. Test compounds were serially diluted in DMSO and then resuspended to the final test concentration in external recording solution, with, or without 40 μM acetylcholine added to the external recording solution; test compounds were then transferred to the IonFlux HT population patch plate. Internal recording solution (110 mM TrisPO4, 28 mM TrisBase, 0.1 mM CaCl2, 2 mM MgCl2, 11 mM EGTA, 4 mM MgATP) was added to the internal recording solution inlet wells on the IonFlux HT patch plate previously loaded with cells and test compounds, and the plate loaded into the IonFlux HT instrument. A protocol was executed on the IonFlux HT to trap the cells, break into the cells, and establish the whole-cell recording configuration; cells were voltage-clamped at a holding potential of −60 mV for the duration of the experiment, all experiments were conducted at room temperature, and the IonFlux HT injection pressure was 8 psi for solution applications. Upon establishing the whole-cell configuration, external recording solution was perfused into the recording chambers for 120 seconds and then 40 μM acetylcholine was applied for 1 second and immediately washed off with external recording solution for 60 seconds. The 40 μM acetylcholine-evoked α7 current served as the current response to which subsequent test compound effects, in the presence, or in the absence of 40 μM acetylcholine would be quantified relative to. Next, test compounds were evaluated at multiple concentrations for their ability to induce, or modulate 7 current responses; three concentrations of test compound were evaluated in ascending dose fashion per recording.

[1] = HEK cells expressing human α7/RIC-3, test compound with or without 40 μM acetylcholine, holding potential −60 mV, room temperature, read-out: α7 nAChR Potency
[2] = automated patch-clamp electrophysiology functional assay (Assay A), read-out: α7 nAChR EC50

Compound | pEC50 [1] | pEC50 [2]
NS(=O)(=O)N1CCC2(CC1)C[C@H]2c1noc(-c2ccc3c(c2)CCCC3)n1 [Example E72] | 6.30 to 7.00 | 6.96
Cc1ccc(C)c(-c2nc(C3C(F)(F)C34CCN(S(N)(=O)=O)C(C)C4)no2)c1 (mixture of isomers) [Example K2] | 6.30 to 7.00 | 6.37
NS(=O)(=O)N1CCC2(CC1)C[C@H]2c1noc(-c2ccccc2-n2cccc2)n1 [Example E73] | 5.30 to 6.30 | 6.19
NS(=O)(=O)N1CCC2(CC1)C[C@H]2c1noc(-c2ocnc2C(F)(F)F)n1 [Example E23] | 5.30 to 6.30 | 5.35
NS(=O)(=O)N1CCC2(CC1)C[C@H]2c1noc(Cc2c(F)cccc2C(F)(F)F)n1 [Example E4] | 4.30 to 5.30 | 5.14
NS(=O)(=O)N1CCC2(CC1)[C@H](c1coc(-c3conc3C3CC3)n1)C2(F)F [Example 31, (2R)-2-[2-(3-Cyclopropylisoxazol-4-yl)-1,3-oxazol-4-yl]-1,1-difluoro-6-azaspiro[2.5]octane-6-sulfonamide] | 6.30 to 7.00 | 6.89
NS(=O)(=O)N1CCC2(CC2c2nc(-c3cccc(OCC(F)(F)F)c3)no2)C(F)(F)C1 (centres unmarked) [Example 3, 4,4-Difluoro-1-{3-[3-(2,2,2-trifluoroethoxy)phenyl]-1,2,4-oxadiazol-5-yl}-6-azaspiro[2.5]octane-6-sulfonamide] | 5.30 to 6.30 | 5.89
Cc1ccc(C)c(-c2noc(C3(C)C(F)(F)C34CCN(S(N)(=O)=O)CC4)n2)c1 (racemic) [Example C18] | 5.30 to 6.30 | 5.80
CC(C)Oc1cc(-c2nc([C@@H]3C(F)(F)C34CCN(S(N)(=O)=O)CC4)no2)ccn1 [Example E51] | 5.30 to 6.30 | 6.28
Cc1n[nH]c(C2CC2)c1-c1nc([C@@H]2C(F)(F)C23CCN(S(N)(=O)=O)CC3)no1 [Example E41] | > 7.00 | 7.82
COc1ccc(Cl)cc1-c1noc(C2CC23CCN(C(=O)NC2CCCCC2)CC3)n1 (racemic) [Example B10] | 5.30 to 6.30 | –
Cc1cnn(C)c1-c1nc([C@@H]2C(F)(F)C23CCN(S(N)(=O)=O)CC3)no1 [Example 9, (2R)-2-[5-(1,4-Dimethyl-1H-pyrazol-5-yl)-1,2,4-oxadiazol-3-yl]-1,1-difluoro-6-azaspiro[2.5]octane-6-sulfonamide] | > 7.00 | 7.12
NS(=O)(=O)N1CCC2(CC1)C[C@H]2c1noc(-c2ccccc2OC(F)F)n1 [Example D4] | 6.30 to 7.00 | 6.72
NS(=O)(=O)N1CCC2(CC1)C[C@H]2c1noc(C2(c3cc(F)ccc3F)CCC2)n1 [Example E10] | 5.30 to 6.30 | 5.47
COc1ccc(Cl)cc1-c1noc(C2CC23CCN(S(=O)(=O)CC2CCCCO2)CC3)n1 (mixture of isomers) [Example B3] | 5.30 to 6.30 | 5.89
NS(=O)(=O)N1CCC2(CC1)[C@H](c1ncc(-c3ccc(F)cc3C(F)(F)F)o1)C2(F)F [Example G5] | > 7.00 | 7.04
NS(=O)(=O)N1CCC2(CC1)C(c1nc(C3CCCCC3)no1)C2(F)F (centres unmarked) [Example C6] | 6.30 to 7.00 | 6.38
Cn1nc2c(c1-c1nc([C@@H]3CC34CCN(S(N)(=O)=O)CC4)no1)CCCC2 [Example E65] | 6.30 to 7.00 | 6.38
NS(=O)(=O)N1CCC2(CC1)[C@H](c1cc(-c3conc3C3CC3)no1)C2(F)F [Example G8] | > 7.00 | 7.80
NS(=O)(=O)N1CCC2(CC1)C[C@H]2c1noc(-c2ccc(F)cc2F)n1 [Example D15] | 5.30 to 6.30 | 5.92
NS(=O)(=O)N1CCC2(C(F)C1)C(c1nc(-c3ccc(F)cc3C(F)(F)F)no1)C2(F)F (centres unmarked) [Example I15] | 5.30 to 6.30 | 5.85

Compound | pEC50 [1] | pEC50 [2]
NS(=O)(=O)N1CCC2(CC1)C[C@H]2c1nnc(-c2cc(F)ccc2F)s1 [Example F4] | 5.30 to 6.30 | 5.96
Cn1ncc(C(F)(F)F)c1-c1nc([C@@H]2C(F)(F)C23CCN(S(N)(=O)=O)CC3)no1 [Example 14, (2R)-1,1-Difluoro-2-{5-[1-methyl-4-(trifluoromethyl)-1H-pyrazol-5-yl]-1,2,4-oxadiazol-3-yl}-6-azaspiro[2.5]octane-6-sulfonamide] | > 7.00 | 7.31
CCc1ncoc1-c1nc([C@@H]2CC23CCN(S(N)(=O)=O)CC3)no1 [Example E24] | 5.30 to 6.30 | 5.44
Cc1cnc2cc(-c3nc([C@@H]4C(F)(F)C45CCN(S(N)(=O)=O)CC5)no3)ccn12 [Example E36] | 5.30 to 6.30 | 5.96
NS(=O)(=O)N1CCC2(CC1)C(c1nc(-c3ccc(F)cc3C(F)(F)F)no1)C2(Cl)Cl (racemic) [Example C17] | 5.30 to 6.30 | 5.57
CNc1ncccc1-c1noc(C2CC23CCN(S(N)(=O)=O)CC3)n1 (racemic) [Example C1] | 5.30 to 6.30 | 5.44
NS(=O)(=O)N1CCC2(CC1)C[C@H]2c1noc(-c2ccccc2-c2ncccn2)n1 [Example E76] | 5.30 to 6.30 | 5.49
NS(=O)(=O)N1CCC2(CC1)[C@H](c1noc(-c3ccnn3C3CC3)n1)C2(F)F [Example E34] | 6.30 to 7.00 | 6.89
NS(=O)(=O)N1CCC2(CC1)C(c1nc(-c3c(C4CC4)noc3C(F)(F)F)no1)C2(F)F (centres unmarked) [Example C15] | > 7.00 | –
NS(=O)(=O)N1CCC2(CC1)C[C@H]2c1noc(-c2ccc(Cl)cc2OC(F)F)n1 [Example D10] | > 7.00 | 7.06
NS(=O)(=O)N1CCC2(CC1)[C@@H](c1nc(-c3cccc(F)c3)no1)C2(F)F [Example H4] | 5.30 to 6.30 | 5.92
Cc1ccc(C2CC2)c(-c2nc([C@@H]3C(F)(F)C34CCN(S(N)(=O)=O)CC4)no2)c1 [Example 30, (2R)-2-[5-(2-Cyclopropyl-5-methylphenyl)-1,2,4-oxadiazol-3-yl]-1,1-difluoro-6-azaspiro[2.5]octane-6-sulfonamide] | > 7.00 | 8.62
CC(C)n1nccc1-c1nc([C@@H]2CC23CCN(S(N)(=O)=O)CC3)no1 [Example E62] | 5.30 to 6.30 | 5.82
Cc1cnn(CC(F)(F)F)c1-c1nc([C@@H]2CC23CCN(S(N)(=O)=O)CC3)no1 [Example 8, (1R)-1-{5-[4-Methyl-1-(2,2,2-trifluoroethyl)-1H-pyrazol-5-yl]-1,2,4-oxadiazol-3-yl}-6-azaspiro[2.5]octane-6-sulfonamide] | 6.30 to 7.00 | 6.64
NS(=O)(=O)N1CCC2(CC1)C(c1nsc(N3CCCCC3)n1)C2(F)F (racemic) [Example J2] | 5.30 to 6.30 | 6.00
NS(=O)(=O)N1CCC2(CC1)C[C@H]2c1noc(-c2cccc3c2CCC3)n1 [Example E69] | > 7.00 | –
NS(=O)(=O)N1CCC2(CC1)C[C@H]2c1nnc(-c2cccc(C(F)(F)F)c2)o1 [Example F2] | 5.30 to 6.30 | –
CC1CN(S(N)(=O)=O)CCC12CC2c1nc(-c2ccc(F)cc2C(F)(F)F)no1 (centres unmarked) [Example 6, 1-{3-[4-Fluoro-2-(trifluoromethyl)phenyl]-1,2,4-oxadiazol-5-yl}-4-methyl-6-azaspiro[2.5]octane-6-sulfonamide] | 6.30 to 7.00 | 6.55
NS(=O)(=O)N1CCC2(CC1)C[C@H]2c1noc(-c2cc(-n3ccnc3)ncc2C(F)(F)F)n1 [Example E31] | 5.30 to 6.30 | 5.37
NS(=O)(=O)N1CCC2(CC1)[C@H](c1noc(-c3conc3C(F)(F)F)n1)C2(F)F [Example E68] | 5.30 to 6.30 | 6.17
Cc1ccc(F)cc1-c1nnc([C@@H]2CC23CCN(S(N)(=O)=O)CC3)o1 [Example F5] | 6.30 to 7.00 | 6.38
